Reference: the supplement of paper PMC8882468

Experiments:
Assay in all cases: CTG-3D luminescence at 96 h relative to day-0 seeding control (ratio to day 0); higher = more growth / less cytotoxicity; PDxO 3D drug screen, 96 h, CTG-3D normalised to day-0 seeding control.
[1] = test system: HCI-017.E2 (organoid from an ER-positive breast cancer xenograft)
[2] = test system: HCI-002 (organoid from a triple-negative breast cancer xenograft)
[3] = test system: HCI-015 (organoid from a triple-negative breast cancer xenograft)
[4] = test system: MDA-MB-231
[5] = test system: HCI-023 (organoid from a triple-negative breast cancer xenograft)
[6] = test system: HCI-025 (organoid from a breast cancer xenograft)

O=C(O)C1(C(=O)O)CCC1.[NH2-].[NH2-].[Pt+2] [carboplatin]
CTG-3D luminescence at 96 h
Conditions	12.5 pM	0.00025 µM	0.005 µM	0.1 µM	1 µM	10 µM	100 µM	625 fM
[1]	1.88	2.076	2.32	2.4	2.25	2.08	1.9	1.97
[4]	4.49	4.27	4.51	4.46	4.4	4.16	3.05	4.47

CTG-3D luminescence at 96 h
Conditions	12.5 pM	0.00025 µM	0.005 µM	0.1 µM	1 µM	10 µM	100 µM	625 fM
[1], days in culture: 85	2.99	2.47	2.94	2.35	2.71	2.18	2.37	2.62
[2], days in culture: 62	3.04	2.34	2.63	2.61	2.45	2.29	0.71	2.9
[2], days in culture: 82	2.75	3.03	1.99	2.54	2.26	1.82	0.726	2.68
[2], days in culture: 91	4.49	3.72	3.53	3.87	3.9	3.69	0.992	4.08
[2], days in culture: 191	2.54	2.62	2.4	2.78	2.89	1.86	0.967	2.4
[2], days in culture: 209	2.4	2.34	2.11	2.07	2.18	1.69	0.74	2.38
[2], days in culture: 227	5.92	5.72	5.38	6.29	5.74	5.68	1.18	6.2
[3], days in culture: 172	2.56	2.15	2.48	1.49	2.05	0.715	0.354	2.54
[3], days in culture: 191	2.21	1.24	1.47	1.04	1.4	0.766	0.228	1.15
[3], days in culture: 218	1.26	1.7	1.7	1.77	1.54	0.685	0.229	1.75
[5], days in culture: 111	1.4	1.31	1.12	1.33	0.977	1.03	0.106	1.16
[5], days in culture: 128	1.28	1.47	1.23	1.6	1.16	1.35	0.0724	1.57
[6], days in culture: 172	2.56	1.71	3.2	1.24	2.75	1.11	0.15	1.35
[6], days in culture: 209	1.97	1.73	1.67	1.49	1.79	0.85	0.119	1.86
[6], days in culture: 218	1.73	1.73	1.72	2.01	1.43	1.14	0.203	1.73

NC(=O)Nc1cc(-c2cccc(F)c2)sc1C(=O)N[C@H]1CCCNC1 [AZD7762]
CTG-3D luminescence at 96 h
Conditions	12.5 pM	0.00025 µM	0.005 µM	0.1 µM	1 µM	10 µM	100 µM	625 fM
[1]	1.919	2	2.23	1.853	1.22	1.22	0.00946	2.25
[4]	4.48	4.32	4.52	3.96	1.4	0.628	0.0187	4.49

CTG-3D luminescence at 96 h
Conditions	12.5 pM	0.00025 µM	0.005 µM	0.1 µM	1 µM	10 µM	100 µM	625 fM
[1], days in culture: 85	2.53	3.05	2.76	2.37	1.67	1.26	0.0135	2.7
[2], days in culture: 62	2.52	2.46	2.85	2.92	1.41	0.539	0.00339	3.08
[2], days in culture: 82	2.71	3.02	2.27	2.44	1.47	0.623	0.00321	2.87
[2], days in culture: 91	3.98	3.93	3.26	3.87	2.42	0.946	0.00426	4.19
[2], days in culture: 191	2.47	2.51	2.36	2.27	2	0.525	0.00388	2.69
[2], days in culture: 209	2.16	2.27	2.12	1.89	1.31	0.332	0.00089	2.27
[2], days in culture: 227	5.71	5.98	5.18	5.24	2.21	0.595	-0.201	6.1
[3], days in culture: 172	2.49	1.87	2.19	0.668	0.336	0.117	0.000941	2.32
[3], days in culture: 191	1.83	1.42	1.11	0.566	0.248	0.12	-0.000313	1.28
[3], days in culture: 218	1.16	1.65	1.65	0.692	0.211	0.102	-0.000297	1.59
[5], days in culture: 111	1.36	1.49	1.15	0.765	0.201	0.0705	-9.95e-05	1.52
[5], days in culture: 128	1.552	1.6	1.32	0.581	0.161	0.133	0.000895	1.67
[6], days in culture: 172	3.17	1.83	2.73	0.677	0.305	0.0747	-0.00404	2.61
[6], days in culture: 209	1.54	2.2	1.92	0.713	0.29	0.0922	-0.00311	1.39
[6], days in culture: 218	1.78	1.97	2.04	1.33	0.198	0.105	-0.00375	1.77
